Laboratory results: EP4725941A1, “ARYLAMIDE DERIVATIVE HAVING ANTITUMOR ACTIVITY” (priority 2020, dated 2021)
Like-named read-outs stand apart in the source and are kept apart here.

Legend:
NCI-H2122 = assay: Cell proliferation-inhibiting activity (ATP in viable cells, CellTiter-Glo), NCI-H2122; format: cell-based, human; conditions: NCI-H2122, 96 h, read-out: NCI-H2122 IC50
A549 = assay: Cell proliferation-inhibiting activity (ATP in viable cells, CellTiter-Glo), A549; format: cell-based, human; conditions: A549, 96 h, read-out: A549 IC50
Calu-6 = assay: Cell proliferation-inhibiting activity (ATP in viable cells, CellTiter-Glo), Calu-6; format: cell-based, human; conditions: Calu-6, 96 h, read-out: Calu-6 IC50
BRAF = target: T1, BRAF (Homo sapiens, UniProt P15056); assay: BRAF-inhibiting activity, time-resolved fluorescence-fluorescence resonance energy transfer assay; format: biochemical
T1 construct: purchased Eurofins Genomics KK; (BRAF); Thermo Fisher Scientific Inc. (MEK1)
T1 sequence (P15056 417-766 limits assumed): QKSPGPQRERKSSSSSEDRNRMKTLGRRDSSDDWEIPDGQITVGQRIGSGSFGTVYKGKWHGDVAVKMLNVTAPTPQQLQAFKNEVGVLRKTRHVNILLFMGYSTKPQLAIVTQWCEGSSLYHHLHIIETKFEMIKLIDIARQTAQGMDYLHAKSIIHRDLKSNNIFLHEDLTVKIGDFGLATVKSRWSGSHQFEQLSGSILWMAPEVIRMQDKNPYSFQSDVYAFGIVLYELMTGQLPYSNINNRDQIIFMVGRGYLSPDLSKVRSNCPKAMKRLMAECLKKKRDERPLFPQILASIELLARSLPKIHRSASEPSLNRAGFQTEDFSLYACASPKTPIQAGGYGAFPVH
Method: The BRAF-inhibiting activity of the compounds listed in Table 3 below was evaluated by the time-resolved fluorescence-fluorescence resonance energy transfer assay as described below.

MEK1 = target: T2, MEK1 (Homo sapiens, UniProt Q02750); assay: MEK1-inhibiting activity, fluorescent polarization method (CRAF/MEK1/ERK2 cascade, IMAP); format: biochemical; conditions: Table 3; read-out: MEK1 IC50
T2 construct: purchased Thermo Fisher Scientific Inc. (MEK1, CRAF); Carna Biosciences, Inc. (ERK2)
T2 sequence (Q02750 whole entry): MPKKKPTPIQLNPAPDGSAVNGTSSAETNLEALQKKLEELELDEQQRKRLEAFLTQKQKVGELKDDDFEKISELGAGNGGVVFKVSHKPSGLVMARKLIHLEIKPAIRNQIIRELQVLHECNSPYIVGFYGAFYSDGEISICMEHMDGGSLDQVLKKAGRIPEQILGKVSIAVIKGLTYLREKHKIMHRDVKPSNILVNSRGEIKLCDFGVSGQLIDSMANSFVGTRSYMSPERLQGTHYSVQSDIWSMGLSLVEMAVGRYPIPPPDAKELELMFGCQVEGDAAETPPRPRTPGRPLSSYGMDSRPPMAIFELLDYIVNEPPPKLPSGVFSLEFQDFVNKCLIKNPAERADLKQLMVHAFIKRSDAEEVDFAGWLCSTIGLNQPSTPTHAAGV
Method: The MEK1-inhibiting activity of the compounds listed in Table 3 below were evaluated by the fluorescent polarization method as described below.

[1] = Human liver microsome stability; format: in vitro ADME; conditions: human liver microsomes, pH 7.4
[2] = human lung cancer cells, 4 days

SMILES | IC50 (NCI-H2122; [2]) | IC50 (A549; [2]) | IC50 (Calu-6; [2]) | IC50 (BRAF; read-out: BRAF IC50; Table 3) | IC50 (MEK1) | microsomal CLint at 0.99 µM [1] | IC50 (NCI-H2122; Homo sapiens) | IC50 (A549; Homo sapiens) | IC50 (Calu-6; Homo sapiens) | IC50 (BRAF; Table 3; read-out: BRAF IC50)
NC(=O)c1cc(Cc2cccc(NS(=O)(=O)CC3CC3)c2F)c(F)c(F)c1Nc1ccc(I)cc1F [Compound E-14, 5-[[3-(Cyclopropylmethylsulfonylamino)-2-fluorophenyl]methyl]-3,4-di fluoro-2-(2-fluoro-4-iodoanilino)benzamide] | 7 nM | 13 nM | 71 nM | 17 nM | 343 nM | 22 µL/min/mg | – | – | – | –
CC1(S(=O)(=O)Nc2cccc(Cc3cc(C(N)=O)c(Nc4ccc(I)cc4F)c(F)c3F)c2F)CC1 [Compound E-16, 3,4-Difluoro-2-(2-fluoro-4-iodoanilino)-5-[[2-fluoro-3-[(1-methylcyclopropyl)sulfonylamino]phenyl]methyl]benzamide] | 7 nM | 33 nM | 87 nM | 12 nM | 352 nM | < 1 µL/min/mg | – | – | – | –
CC(C)CS(=O)(=O)Nc1cccc(Cc2cc(C(N)=O)c(Nc3ccc(I)cc3F)c(F)c2F)c1F [Compound E-17, 3,4-Difluoro-2-(2-fluoro-4-iodoanilino)-5-[[2-fluoro-3-(2-methylpropylsulfonylamino)phenyl]methyl]benzamide] | 7 nM | 31 nM | 110 nM | 6 nM | 199 nM | 24 µL/min/mg | – | – | – | –
COCC1(S(=O)(=O)Nc2cccc(Cc3cc(C(N)=O)c(Nc4ccc(I)cc4F)c(F)c3F)c2F)CC1 [Compound E-19] | 9 nM | 9 nM | 87 nM | 34 nM | 332 nM | 115 µL/min/mg | – | – | – | –
NC(=O)c1cc(Cc2cccc(NS(=O)(=O)C3CC3)c2F)c(F)c(F)c1Nc1ccc(I)cc1F [Compound E-22, 5-[[3-(Cyclopropylsulfonylamino)-2-fluorophenyl]methyl]-3,4-difluoro-2-(2-fluoro-4-iodoanilino)benzamide] | 3 nM | 6 nM | 87 nM | 4 nM | 302 nM | 18 µL/min/mg | – | – | – | –
NC(=O)c1cc(Cc2cccc(NS(=O)(=O)C3CCOCC3)c2F)c(F)c(F)c1Nc1ccc(I)cc1F [Compound E-23, 3,4-difluoro-2-(2-fluoro-4-iodoanilino)-5-[[2-fluoro-3-(oxan-4-ylsulfonylamino)phenyl]methyl]benzamide] | 4 nM | 31 nM | 47 nM | 6 nM | 61 nM | 98 µL/min/mg | – | – | – | –
CC(C)S(=O)(=O)Nc1cccc(Cc2cc(C(N)=O)c(Nc3ccc(I)cc3F)c(F)c2F)c1F [Compound E-24, 3,4-Difluoro-2-(2-fluoro-4-iodoanilino)-5-[[2-fluoro-3-(propan-2-ylsulfonylamino)phenyl]methyl]benzamide] | 5 nM | 26 nM | 63 nM | 20 nM | 189 nM | 10 µL/min/mg | – | – | – | –
CCS(=O)(=O)Nc1cccc(Cc2cc(C(N)=O)c(Nc3ccc(I)cc3F)c(F)c2F)c1 [Compound F-2, 5-[[3-(Ethylsulfonylamino)phenyl]methyl]-3,4-difluoro-2-(2-fluoro-4-iodoanilino)benzamide] | 8 nM | 8 nM | 66 nM | 5 nM | 383 nM | 15 µL/min/mg | – | – | – | –
CNS(=O)(=O)Nc1nccc(Cc2cc(C(=O)NOC)c(Nc3ccc(C4CC4)cc3F)c(F)c2F)c1F [Compound G-2, 2-(4-Cyclopropyl-2-fluoroanilino)-3,4-difluoro-5-[[3-fluoro-2-(methylsulfamoylamino)pyridin-4-yl]methyl]-N-methoxybenzamide] | 0.4 nM | 2 nM | 13 nM | 3 nM | 6 nM | 31 µL/min/mg | – | – | – | –
CNS(=O)(=O)Nc1nccc(Cc2cc(C(=O)NOC)c(Nc3ccc(Br)cc3F)c(F)c2F)c1F [Compound G-3, 2-(4-Bromo-2-fluoroanilino)-3,4-difluoro-5-[[3-fluoro-2-(methylsulfamoylamino)pyridin-4-yl]methyl]-N-methoxybenzamide] | 2 nM | 7 nM | 47 nM | 5 nM | 15 nM | 29 µL/min/mg | – | – | – | –
CNS(=O)(=O)Nc1nccc(Cc2cc(C(N)=O)c(Nc3ccc(SC(F)F)cc3F)c(F)c2F)c1F [Compound H-1, 2-[4-(difluoromethylsulfanyl)-2-fluoroanilino]-3,4-difluoro-5-[[3-fluoro-2-(methylsulfamoylamino)pyridin-4-yl]methyl]benzamide] | – | – | – | – | 7 nM | 39 µL/min/mg | 5 nM | 9 nM | 21 nM | 2 nM
CNS(=O)(=O)Nc1nccc(Oc2cc(C(N)=O)c(Nc3ccc(I)cc3F)c(F)c2F)c1F [Compound H-4, 3,4-difluoro-2-(2-fluoro-4-iodoanilino)-5-[3-fluoro-2-(methylsulfamoylamino)pyridin-4-yl]oxybenzamide] | 1 nM | 9 nM | 6 nM | 12 nM | 8 nM | 11 µL/min/mg | – | – | – | –
CNS(=O)(=O)Nc1nccc(Cc2cc(C(N)=O)c(Nc3ccc(I)cc3F)cc2F)c1F [Compound I-1, 4-fluoro-2-(2-fluoro-4-iodoanilino)-5-[[3-fluoro-2-(methylsulfamoylamino)pyridin-4-yl]methyl]benzamide] | 3 nM | 5 nM | 15 nM | 3 nM | 25 nM | 19 µL/min/mg | – | – | – | –
CNS(=O)(=O)Nc1nccc(Cc2cc(C(N)=O)c(Nc3ccc(I)cc3F)n(C)c2=O)c1F [Compound J-1, 2-(2-fluoro-4-iodoanilino)-5-[[3-fluoro-2-(methylsulfamoylamino)pyridin-4-yl]methyl]-1-methyl-6-oxopyridine-3-carboxamide] | 8 nM | 38 nM | 29 nM | 4 nM | 58 nM | 11 µL/min/mg | – | – | – | –
Cn1c(Nc2ccc(C3CC3)cc2F)c(C(N)=O)cc(Cc2ccnc(NS(=O)(=O)NC3CC3)c2F)c1=O [Compound J-4, 2-(4-Cyclopropyl-2-fluoroanilino)-5-[[2-(cyclopropylsulfamoylamino)-3-fluoropyridin-4-yl]methyl]-1-methyl-6-oxopyridine-3-carboxamide] | – | – | – | – | 877 nM | 67 µL/min/mg | 1060 nM | > 2000 nM | > 2000 nM | 14 nM
CNS(=O)(=O)Nc1nccc(Cc2cc(C(=O)NC3CC3)c(Nc3ccc(I)cc3F)n(C)c2=O)c1F [Compound J-5, N-cyclopropyl-2-(2-fluoro-4-iodoanilino)-5-[[3-fluoro-2-(methylsulfamoylamino)pyridin-4-yl]methyl]-1-methyl-6-oxopyridine-3-carbo xamide] | 4 nM | 7 nM | 29 nM | 8 nM | 117 nM | 20 µL/min/mg | – | – | – | –
Cn1c(Nc2ccc(I)cc2F)c(C(=O)NC2CC2)cc(Cc2ccnc(NS(=O)(=O)NC3CC3)c2F)c1=O [Compound J-6, N-Cyclopropyl-5-[[2-(cyclopropylsulfamoylamino)-3-fluoropyridin-4-yl]methyl]-2-(2-fluoro-4-iodoanilino)-1-methyl-6-oxopyridine-3-carboxamide] | 7 nM | 14 nM | 27 nM | 7 nM | 86 nM | 45 µL/min/mg | – | – | – | –
CNS(=O)(=O)Nc1nccc(Cc2cc(C(=O)NOC)c(Nc3ccc(I)cc3F)n(C)c2=O)c1F [Compound J-8, 2-(2-fluoro-4-iodoanilino)-5-[[3-fluoro-2-(methylsulfamoylamino)pyridin-4-yl]methyl]-N-methoxy-1-methyl-6-oxopyridine-3-carboxamide] | 5 nM | 24 nM | 77 nM | 2 nM | 15 nM | 3 µL/min/mg | – | – | – | –
CNS(=O)(=O)Nc1nccc(Cc2cc(C(=O)NOC(C)(C)C)c(Nc3ccc(I)cc3F)n(C)c2=O)c1F [Compound J-10, 2-(2-fluoro-4-iodoanilino)-5-[[3-fluoro-2-(methylsulfamoylamino)pyridin-4-yl]methyl]-1-methyl-N-[(2-methylpropan-2-yl)oxy]-6-oxop yridine-3-carboxamide] | 2 nM | 8 nM | 13 nM | 10 nM | 42 nM | 28 µL/min/mg | – | – | – | –
Cn1c(Nc2ccc(I)cc2F)c(C(=O)NOC(C)(C)C)cc(Cc2ccnc(NS(=O)(=O)NC3CC3)c2F)c1=O [Compound J-11, 5-[[2-(Cyclopropylsulfamoylamino)-3-fluoropyridin-4-yl]methyl]-2-(2-fluoro-4-iodoanilino)-1-methyl-N-[(2-methylpropan-2-yl)oxy]-6-oxopyr idine-3-carboxamide] | 6 nM | 13 nM | 27 nM | 17 nM | 48 nM | 47 µL/min/mg | – | – | – | –
